Legend:
human orexin-2 receptor = biological target: T1, human orexin-2 receptor (Homo sapiens, UniProt O43614); experiment: FLIPR intracellular calcium assay, orexin receptor antagonistic activity (OX2); format: cell-based; details: CHO cells expressing human orexin-2 receptor; 3 nM orexin-A; measured with FLIPR Tetra (marked *)
T1 construct: expressed in transfected cells; host or cells: CHO (Chinese hamster ovary) cells, grown under G418 selection
T1 sequence (O43614 1-444): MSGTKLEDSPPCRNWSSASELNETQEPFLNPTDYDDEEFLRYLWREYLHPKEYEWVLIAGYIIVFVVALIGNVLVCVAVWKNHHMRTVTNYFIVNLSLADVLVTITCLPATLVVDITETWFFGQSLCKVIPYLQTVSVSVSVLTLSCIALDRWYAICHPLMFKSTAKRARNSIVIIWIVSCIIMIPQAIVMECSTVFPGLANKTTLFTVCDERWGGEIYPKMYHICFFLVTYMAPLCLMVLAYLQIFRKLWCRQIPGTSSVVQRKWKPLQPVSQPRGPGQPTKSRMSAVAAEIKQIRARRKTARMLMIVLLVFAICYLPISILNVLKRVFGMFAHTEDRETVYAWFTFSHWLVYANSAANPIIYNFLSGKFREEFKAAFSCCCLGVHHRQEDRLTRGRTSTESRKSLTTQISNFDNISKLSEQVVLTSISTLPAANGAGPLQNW
Experimental: (§1) Chinese hamster ovary (CHO) cells expressing the human orexin-1 receptor and the human orexin-2 receptor, respectively, are grown in culture medium (Ham F-12 with L-Glutamine) containing 300 μg/ml G418, 100 U/ml penicillin, 100 μg/ml streptomycin and 10% heat inactivated fetal calf serum (FCS). The cells are seeded at 20′000 cells/well into 384-well black clear bottom sterile plates (Greiner). The seeded plates are incubated overnight at 37° C. in 5% CO2.
(§2) Human orexin-A as an agonist is prepared as 1 mM stock solution in MeOH:water (1:1), diluted in HBSS containing 0.1% bovine serum albumin (BSA), NaHCO3:0.375 g/l and 20 mM HEPES for use in the assay at a final concentration of 3 nM.
(§3) Antagonists are prepared as 10 mM stock solution in DMSO, then diluted in 384-well plates, first in DMSO, then in HBSS containing 0.1% bovine serum albumin (BSA), NaHCO3: 0.375 g/l and 20 mM HEPES.
(§4) On the day of the assay, 50 μl of staining buffer (HBSS containing 1% FCS, 20 mM HEPES, NaHCO3: 0.375 g/l, 5 mM probenecid (Sigma) and 3 μM of the fluorescent calcium indicator fluo-4 AM (1 mM stock solution in DMSO, containing 10% pluronic) is added to each well.
(§5) The 384-well cell-plates are incubated for 50 min at 37° C. in 5% CO2 followed by equilibration at RT for 30-120 min before measurement.
(§6) Within the Fluorescent Imaging Plate Reader (FLIPR2 or FLIPR Tetra, Molecular Devices), antagonists are added to the plate in a volume of 10 μl/well, incubated for 10 min and finally 10 μl/well of agonist is added. Fluorescence is measured for each well at 1 second intervals, and the height of each fluorescence peak is compared to the height of the fluorescence peak induced by 3 nM orexin-A with vehicle in place of antagonist. For each antagonist, the IC50 value (the concentration of compound needed to inhibit 50% of the agonistic response) is determined. Optimized conditions may be achieved by adjustment of pipetting speed and cell splitting regime. The calculated IC50 values of the compounds may fluctuate depending on the daily cellular assay performance. Fluctuations of this kind are known to those skilled in the art.

human orexin-1 receptor = biological target: T2, human orexin-1 receptor (Homo sapiens, UniProt O43613); experiment: FLIPR intracellular calcium assay, orexin receptor antagonistic activity (OX1); format: cell-based; details: CHO cells expressing human orexin-1 receptor; 3 nM orexin-A; measured with FLIPR Tetra (marked *)
T2 construct: expressed in transfected cells; host or cells: CHO (Chinese hamster ovary) cells, grown under G418 selection
T2 sequence (O43613 1-425): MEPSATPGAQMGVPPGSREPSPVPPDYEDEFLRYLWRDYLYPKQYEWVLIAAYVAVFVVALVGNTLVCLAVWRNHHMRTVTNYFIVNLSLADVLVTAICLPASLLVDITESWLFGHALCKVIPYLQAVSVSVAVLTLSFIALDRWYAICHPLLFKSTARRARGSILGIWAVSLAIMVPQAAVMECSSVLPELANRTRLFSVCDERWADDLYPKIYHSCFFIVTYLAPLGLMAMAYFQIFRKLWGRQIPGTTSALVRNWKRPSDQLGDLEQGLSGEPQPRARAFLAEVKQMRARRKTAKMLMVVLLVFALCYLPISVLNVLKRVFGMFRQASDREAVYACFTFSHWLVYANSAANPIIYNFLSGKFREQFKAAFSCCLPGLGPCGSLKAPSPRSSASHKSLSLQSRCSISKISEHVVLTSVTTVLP
Experimental: as §1, §2, §3, §4, §5, §6

Structure (SMILES)	IC50 (human orexin-2 receptor) [nM]	IC50 (human orexin-1 receptor) [nM]
Cc1cccc(-c2sc(N)nc2C(=O)N(CCNC(=O)c2nn(C)c3ccccc23)CC2CC2)c1 [Example 195, 1-Methyl-1H-indazole-3-carboxylic acid {2-[(2-amino-5-m-tolyl-thiazole-4-carbonyl)-cyclopropylmethyl-amino]-ethyl}-amide]	12	57
Nc1nc(C(=O)N(CCNC(=O)c2cccc3occc23)CC2CC2)c(-c2ccc(F)cc2)s1 [Example 261, 2-Amino-5-(4-fluoro-phenyl)-thiazole-4-carboxylic acid {2-[(benzofuran-4-carbonyl)-amino]-ethyl}-cyclopropylmethyl-amide]	4.2	263
Nc1nc(C(=O)N(CCNC(=O)c2cccc3occc23)CC2CC2)c(-c2cccc(Cl)c2)s1 [Example 262, 2-Amino-5-(3-chloro-phenyl)-thiazole-4-carboxylic acid {2-[(benzofuran-4-carbonyl)-amino]-ethyl}-cyclopropylmethyl-amide]	17	144

Further compounds by falling IC50 (human orexin-2 receptor), results first:

IC50 (human orexin-2 receptor) [nM]	IC50 (human orexin-1 receptor) [nM]	Structure (SMILES)
203	807	Cc1cccc(-c2ccccc2C(=O)N(CCNC(=O)c2cccc3c2OCCO3)CC2CC2)c1 [Example 252, 2,3-Dihydro-benzo[1,4]dioxine-5-carboxylic acid {2-[cyclopropylmethyl-(3′-methyl-biphenyl-2-carbonyl)-amino]-ethyl}-amide]
29	434	COc1cccc(-c2sc(C)nc2C(=O)N(CCNC(=O)c2cccc3c2OCCO3)CC2CC2)c1 [Example 248, 5-(3-Methoxy-phenyl)-2-methyl-thiazole-4-carboxylic acid cyclopropylmethyl-{2-[(2,3-dihydro-benzo[1,4]dioxine-5-carbonyl)-amino]-ethyl}-amide]
28	17	Cc1nc(C(=O)N(CCNC(=O)c2c(C)nc3sccn23)CC2CC2)c(-c2cccc(C#N)c2)s1 [Example 187, 6-Methyl-imidazo[2,1-b]thiazole-5-carboxylic acid (2-{[5-(3-cyano-phenyl)-2-methyl-thiazole-4-carbonyl]-cyclopropylmethyl-amino}-ethyl)-amide]

Reference: patent US20110263662A1, “1,2-DIAMIDO-ETHYLENE DERIVATIVES AS OREXIN ANTAGONISTS” (priority 2007, published 2011)
